Laboratory results: article PMC5454592, “Pharmacological and Toxicological Properties of the Potent Oral γ-Secretase Modulator BPN-15606” (The Journal of Pharmacology and Experimental Therapeutics, 2017)
“Also recorded” adds a separate entry of the source.

Assays:
Aβ42 and Aβ40 levels = test: Repeat-dose (9-day) efficacy study in rats; assay type: in vivo, Sprague–Dawley rats
Procedure: Male C57BL/6J mice (n = 10/dose level) and male Sprague–Dawley rats (n = 14/dose level) were administered either vehicle (80% polyethylene glycol 400 v/v; 20% sterile water v/v and 0.1% Tween 20 v/v) or BPN-15606 (10, 25, and 50 mg/kg) once daily po for 7 consecutive days (mice) or 5, 25, and 50 mg/kg once daily po for 9 consecutive days (rats). […] Animals were sacrificed 4 hours following the dosing on day 7 of the 7-day oral treatment course (mice) and on day 9 of the 9-day oral treatment course (rats). Plasma and brain extracts were prepared (mice and rats); CSF was aspirated from the cisterna magnum with minimal to no blood contamination (rats only); and tissues were frozen at −70°C. Aβ peptides were quantitated in brain extracts and plasma (mice) or CSF and plasma (rats), as described previously, using Meso Scale multiplex kits and the Meso Scale Sector Imager 6000 ([Kounnas et al., 2010]). Statistical analysis was performed using GraphPad Prism software, and results are expressed as mean ± S.E.M. Analysis of variance was used to detect a significant effect. Drug levels of BPN-15606 were measured in plasma and brain extracts using the bioanalytical methods detailed above.

[1] = Toxicokinetics in NHP (300 mg/kg repeat dose); assay type: in vivo, cynomolgus macaques; conditions: cynomolgus monkey
Procedure: The objectives of this study were to determine the MTD of BPN-15606, characterize potential toxicity, and calculate toxicokinetic parameters of BPN-15606 in adult male and female cynomolgus macaques following daily po dose administration at a near-MTD dose of BPN-15606 for 7 consecutive days. In the dose escalation phase to establish the MTD (phase A), male and female cynomolgus macaques (n = 2/sex) were administered single doses of BPN-15606 at 3, 10, 30, 100, and 300 mg/kg, with 2 to 4 days between each dose escalation (Fig. 10). […] The plasma drug concentrations at the approximate Tmax increased in a dose-dependent manner. […] Comprehensive evaluation of clinical pathology parameters (clinical chemistry, hematology), gross pathology, and histopathologic parameters was carried out at SRI International, according to their standardized protocols. Tissues examined histopathologically included the following: liver, lung, stomach, duodenum, colon, spleen, pancreas, thymus, heart, brain, and kidney.

γ-secretase = γ-secretase (Homo sapiens, UniProt P49768); test: anti-Aβ immunoprecipitation/MALDI-TOF of neuronal cells; assay type: cell-based; design: endogenous in cells; host or cells: 'neuronal cells' (not specified further); conditions: neuronal cells treated overnight with 100 nM
Procedure: All Aβ assays, including the anti-Aβ immunoprecipitation/matrix-assisted laser desorption/ionization time of flight, were carried out as described previously ([Wagner et al., 2014]).

[2] = test system: bone marrow polychromatic erythrocytes; test: Bone marrow micronucleus assay in rats; assay type: in vivo; conditions: 7 days at 30 or 100 mg/kg
Procedure: The micronucleus component of this study was performed to evaluate the ability of BPN-15606 to induce chromosomal damage in bone marrow of male Sprague–Dawley rats. Rats (n = 5/group) were scheduled to receive single daily doses of BPN-15606 for 7 days at 30, 100, and 300 mg/kg/d (groups 2, 3, and 4, respectively), with euthanasia scheduled 24 hours after the final dose. Animals receiving 300 mg/kg/d were sacrificed in moribund condition on day 3 or 4 due to excessive toxicity, and micronucleus formation was not evaluated; all other treated animals survived to necropsy. Bone marrow samples collected from the low and mid dose groups (30 and 100 mg/kg) were evaluated for cytotoxicity and for micronucleus formation (see Supplemental Table 8). Three bone marrow smear slides were prepared per animal and fixed in absolute methanol. […] Two slides per animal were stained with acridine orange, coded, and evaluated (blind) using epifluorescence microscopy. […] The criteria employed for identifying and quantitating micronuclei are those described by [Schmid (1975)]. Two principal parameters were determined, as follows: 1) the number of PCE among 200 total red blood cells (RBC) per animal (PCE/RBC ratio), which provides an index of bone marrow cytotoxicity, and 2) the number of micronucleated RNA-positive PCE among a total of 2000 PCE per animal, which provides an index of chromosomal damage.

in vivo = conditions: rat
Excerpt: The objectives of this toxicity study were to determine maximum tolerated dose (MTD), characterize the potential toxicity, and calculate toxicokinetic parameters of BPN-15606 in adult male Sprague–Dawley rats (8–10 weeks of age) following daily po dose administration for 7 consecutive days, and to evaluate its potential to damage chromosomes or cause mitotic spindle abnormalities in vivo, as measured by the incidence of micronucleus formation in RNA-containing erythrocytes (bone marrow micronucleus assay). An overview of the study design is presented in Supplemental Table 8. Male rats were administered BPN-15606 po for 7 consecutive days at 30, 100, or 300 mg/kg (groups 2, 3, and 4). A control group (group 1) was given vehicle, 15% Labrasol/85% sterile water, at an equivalent dose volume (10 ml/kg). A 375 mg/kg dose (group 5) was included for determination of day 1 plasma drug levels. Clinical observations were recorded twice daily.
All rats in groups 1, 2, and 3 (0, 30, and 100 mg/kg, respectively) survived until their scheduled day 8 sacrifice, and all tissues specified for histologic evaluation were collected. None of the group 4 (300 mg/kg) animals survived the 7-day dosing period: three were sacrificed in moribund condition, and two were found dead. Necropsy examinations were performed on all rats, but, for group 4 animals, tissues for histopathologic examination were collected only from those rats that were sacrificed in moribund condition. Histopathology assessment was conducted on all tissues collected from all animals in groups 1 and 3, and all tissues collected from group 4 animals euthanized moribund. From group 2 rats, the following tissues were examined histopathologically: duodenum; jejunum; ileum; liver; lung; pancreas; spleen; stomach; and thymus, which were evaluated based on findings at the higher dose levels. When present, grossly altered tissues were examined histopathologically from all group 1, 2, and 3 rats, and from moribund sacrifice group 4 rats. Microscopic data were recorded, and a four-step grading system (minimal, mild, moderate, and marked) was used to define gradable changes. Terminology for data capture was consistent with International Harmonization of Nomenclature and Diagnostic Criteria as promulgated by the Society of Toxicologic Pathology.

## COc1nc(-c2cc(C)c(N[C@@H](C)c3ccc(F)cc3)nn2)ccc1-n1cnc(C)c1 [BPN-15606, (S)-N-(1-(4-fluorophenyl)ethyl)-6-(6-methoxy-5-(4-methyl-1H-imidazol-1-yl)pyridin-2-yl)-4-methylpyridazin-3-amine]
Aβ42 and Aβ40 levels; rat, NOAEL 50 mg/kg vs lowest efficacious dose 5 mg/kg
  safety margin based on dose: ≥ 10 fold
Aβ42 and Aβ40 levels; rats, 5 mg/kg
  lowering of CSF Aβ42 levels: ~40%
Aβ42 and Aβ40 levels; rats, 25 mg/kg
  lowering of CSF Aβ42 levels: 70–75%
  lowering of plasma Aβ42: > 90%
Aβ42 and Aβ40 levels; rats, 5, 25, 50 mg/kg po daily for 9 days
  clinical observations: all animals appeared normal throughout the study
[1]; both sexes, plasma, po, 300 mg/kg, cynomolgus macaques, 300 mg/kg po, day 1
  half-life: 8.7 h
[1]; both sexes, plasma, po, 300 mg/kg, cynomolgus macaques, 300 mg/kg po, day 6
  half-life: 10.2 h
[1]; both sexes, plasma, cynomolgus macaques, 300 mg/kg po
  Tmax: 2 to 4 h
[1]; both, in vivo, po, 300 mg/kg
  exposure (AUClast) day 6 relative to day 1: about 1.7 fold
γ-secretase
  Aβ37 peak (IP/MALDI-TOF): significantly increased
  Aβ38 peak (IP/MALDI-TOF): significantly increased
  Aβ40 peak (IP/MALDI-TOF): significantly reduce
  Aβ42 peak (IP/MALDI-TOF): completely eliminate the peak
[2]
  micronucleus induction in bone marrow (micronucleated PCE): did not induce micronuclei; also recorded: no statistically significant increase
  suppression of PCE among RBC in bone marrow: no significant suppression
In vivo; male, Sprague-Dawley
  MTD at 7 days: ~100 mg/kg
In vivo; male, Sprague-Dawley, 300 mg/kg, 7 days
  mortality: either found dead or sacrificed in moribund condition on day 3 or 4
In vivo; male, Sprague-Dawley, 7 days
  NOEL: ≥ 30 mg/kg
In vivo; male, Sprague-Dawley, po
  MTD at 7 days: ~100 mg/kg/day
In vivo; male, Sprague-Dawley, po, 7 days
  no-observed-effect level (NOEL): 30 mg/kg/day
In vivo; 100 mg/kg
  absolute number and percent of reticulocytes, of the control values: about 20%
  decrease in mean corpuscular hemoglobin: 6.9%
  increase in RBC: 10.5%
  increase in hemoglobin: 10.9%
In vivo; 300 mg/kg
  liver histopathology: Hepatocyte basophilia, hypertrophy, and lipidosis
In vivo; po, 30 mg/kg
  clinical observations: appeared normal throughout the treatment period
